Legend:
NF-κB [1] = experiment: Phosphorylation and degradation of IκBα and phosphorylation of NF-κB in TPA-stimulated skin keratinocytes (western blot); format: cell-based, human
Procedure: (§1) Herein, in order to verify the effect of novel synthetic YG-II-6 compounds and their lead compound, phytosphingosine, on phosphorylation and degradation of IκBα, which is a protein that inhibits the activity of NF-κB by forming a complex with NF-κB, skin keratinocytes were pre-treated with respective compounds for 1 hour and then stimulated with 400 nM TPA for 15 minutes and 30 minutes, respectively. In order to verify the phosphorylation of NF-κB and the expression level of NF-κB in the cytoplasm and nucleus, skin keratinocytes were stimulated for 15 minutes and 1 hour, respectively. The results were confirmed by western blot analysis. In addition, the nuclear translocation of NF-κB was confirmed through reaction with antibodies, fluorescent labeling, and direct observation by microscopy. In order to verify the activity of the respective compounds at the transcription stage, cells were transfected with plasmids labeled with NF-κB luciferase reporter, and the luciferase activity was measured by the luciferase assay. In addition, the phosphorylation of IκBα and NF-κB was measured in the PTA-stimulated mouse skin.

NF-κB [2] = experiment: Nuclear translocation of NF-κB in TPA-stimulated skin keratinocytes (immunostaining, microscopy); format: cell-based, human; conditions: TPA stimulation, FIG. 1B
Procedure: as §1

ERK1/2, p38, JNK = experiment: MAP kinase phosphorylation in TPA-stimulated skin keratinocytes (western blot); format: cell-based, human; conditions: FIG. 4
Procedure: In order to verify the effects of the respective compounds on MAP kinase, skin keratinocytes were treated with the respective compounds for 1 hour, and then stimulated with 400 nM TPA for 15 minutes. The level of phosphorylation was confirmed by western blot assay.

[3] = test system: human-derived keratinocytes; experiment: Cytotoxicity on human-derived keratinocytes (WST-1 reagent); format: cell-based; conditions: WST-1, FIG. 7A
Procedure: (§2) Therefore, in order to verify the degree of the cytotoxicity of the YG-II-6 compounds, their cytotoxicity on human-derived keratinocytes was confirmed by using the WST-1 reagent. In order to verify the effects of the compounds on the expression of proteins associated with apoptosis, the keratinocytes were treated with corresponding concentrations of the respective compound samples and stimulated with TPA for 24 hours, and the expression levels of proteins were confirmed by western blot assay. In addition, human-derived keratinocytes and primary culture skin keratinocytes were treated with the compounds, and after 24 hours, subjected to FITC staining and TUNEL assay, and the skin tissues isolated from TPA-induced mice was subjected to FITC staining.

NF-κB [4] = experiment: NF-κB luciferase reporter assay, TPA stimulation; format: cell-based; conditions: FIG. 1C
Procedure: as §1

mouse skin tissues = experiment: Apoptosis in skin tissues isolated from TPA-induced mice (FITC staining); format: in vivo; conditions: FIGS. 7C to 7E
Procedure: as §2

[5] = test system: human-derived keratinocytes and primary culture skin keratinocytes; experiment: Apoptosis in keratinocytes (FITC staining and TUNEL assay); format: cell-based; conditions: 24 hours, FIGS. 7C to 7E
Procedure: as §2

[6] = overall conclusion of section 2-1

CCCCCCCCCCCCCC[C@@H](O)[C@@H](O)[C@H](CO)NC(=O)/C=C/C(=O)O [fYG-II-6, (E)-4-oxo-4-(((2S,3S,4R)-1,3,4-trihydroxyoctadecan-2-yl)amino)but-2-enoic acid]
inhibitory effect on the NF-κB activation, fYG-II-6 compared with mYG-II-6 (NF-κB [1]; [6]): relatively greater inhibitory effect than mYG-II-6

CCCCCCCCCCCCCC[C@@H](O)[C@@H](O)[C@@H](N)CO [phytosphingosine]
nuclear translocation of NF-κB (NF-κB [2]): inhibited | inhibitory activity on phosphorylation of ERK1/2, p38, and JNK relative to the YG-II-6 compounds (ERK1/2, p38, JNK): relatively weaker inhibitory activity | phosphorylation of ERK1/2, p38, and JNK (ERK1/2, p38, JNK; skin keratinocytes, 1 hour treatment, 400 nM TPA 15 minutes): no or little inhibitory effect | concentration at which cytotoxicity was shown [3]: 5 to 10 µM | activation of NF-κB (phosphorylation and degradation of IκBα) (NF-κB [1]; [6]): inhibited | phosphorylation of IκBα and NF-κB increased by TPA stimulation (NF-κB [1]; skin keratinocytes, 1 hour pre-treatment, 400 nM TPA, FIG. 1A): inhibited | NF-κB luciferase activity increased by TPA stimulation (NF-κB [4]): inhibited | apoptosis in the mouse skin tissues (mouse skin tissues): induced apoptosis | apoptosis in the TPA-stimulated cells [5]: induced apoptosis

— patent US20140357720A1, “NOVEL PHYTOSPHINGOSINE DERIVATIVES, AND A COSMETIC COMPOSITION COMPRISING THE SAME FOR PREVENTING AND AMELIORATING INFLAMMATORY SKIN DISEASES AND HYPERKERATOSIS DISEASES” (THE CATHOLIC UNIVERSITY OF KOREA INDUSTRY-ACADEMIC …, priority 2011, published 2014)
